Entries after “also recorded” stand apart in the source; their conditions may differ.
What was measured:
[1] = system: Gram Positive aerobes and probiotic species (Lactobacillus, Bifidobacteria); test: Bacterial growth panel, impact on non-target species (selectivity); format: cell-based
Listeria monocytogenes = test: Bacterial growth panel, Listeria; format: cell-based
Procedure: (§1) The control sample contained 40 mM NaCl.
Growth of bacteria with or without addition of C2-C8 C10, and C12 alkyl boronic acids, BA, or FMPBA was monitored by readings at OD600. […] The area under the curve (“AUC”) of the growth curve was calculated and the results were expressed as AUC+test compound:AUC−test compound.

[2] = system: diarrheagenic E. coli and APEC; test: Growth of diarrheagenic and APEC E. coli in LB media; format: cell-based; conditions: 30 mM
Procedure: as §1
Diarrheagenic E. coli pathogroups differ by their preferential host colonization sites, virulence mechanisms, and clinical symptoms.

Salmonella [3] = test: Growth of five Salmonella strains; format: cell-based
Procedure: as §1

[4] = system: AIEC E. coli isolated from people (MDR and non-MDR strains); test: Growth of MDR and non-MDR E. coli associated with Crohn's disease; format: cell-based; conditions: 40 mM, LB broth, 48 hrs
Procedure: (§2) The ability of C1-C3 alkyl boronic acids and BA to impact the growth of MDR E. coli isolated from people and dogs was evaluated using a temperature controlled 96-well multiplate incubator at 37° C. over 48 hrs. Growth in media (LB broth) with and without ABA C2-6 (40 mM) was monitored by readings at OD600 with the AUC of the growth curve calculated.

[5] = system: AIEC E. coli from dogs (MDR and non-MDR strains); test: Growth of MDR and non-MDR E. coli associated with Granulomatous colitis in dogs; format: cell-based; conditions: 40 mM, LB broth, 48 hrs
Procedure: as §2
Non-MDR strains KD1, KD2, and KD3 were also evaluated.

[6] = system: AIEC and cancer associated E. coli; test: Soft agar motility assay, E. coli; format: cell-based; conditions: 10 h, AIEC NC101, 541-1, cancer associated E. coli
Procedure: The ability of ABA C1-3 and BA to impact the motility of E. coli and Salmonella was evaluated using sloppy agar treated with and without BA and C1-C3 alkyl boronic acids. Motility is strongly linked to the virulence phenotype of these bacterial strains. E. coli was grown overnight at 37° C. in LB broth. Soft agar plates (1% tryptone, 0.5% NaCl, 0.25% agar) were prepared the day before the assay was carried out. Sterile NaCl (control), boric or boronic acid stock solution was added into the agar right before pouring the plates. The overnight cultures of E. coli were transferred (3 μl) on to the center of each plate, followed by incubation of the plates at 37° C. for 10 h. E. coli motility was quantified by measuring the diameter of the circular swarming area formed by the growing motile bacteria.

nF-κB = test: E. coli induced nF-κB activation in HEK-Blue KD-TLR5 cells (SEAP reporter); format: cell-based; conditions: m.o.i 20, SEAP at 24 h
Procedure: HEK-Blue KD-TLR5 cells were used to detect the promotor activation of nF-κB by E. coli infection with or without boric or boronic acid treatment. nF-κB is the prototypical transcription factor for pro-inflammatory cytokines in epithelium. Briefly, cells were seeded in 96-well plates at a density of 5×10^4 cells per well. E. coli was diluted into fresh cell medium containing either NaCl (Control), boric or boronic acid at an m.o.i of 200 as 10× inocula, followed by addition of this inoculum (10 μl) into each well containing 100 μl of medium for a final m.o.i of 20. At 3 h post infection, the cell medium was carefully removed from each well, and replaced with 100 μl of fresh medium containing gentamycin (200 μg mL^−1). At 24 h post infection, the spent medium was collected, and centrifuged at 12,000 r.p.m. for 5 min to remove any particulate matter. QUANTI-Blue Kit (InvivoGen, San Diego, CA, USA) was used to detect the reporter protein SEAP (secreted alkaline phosphatase) following the manufacturer's instructions.

AIEC 541-1 and LF82 = test: Adhesion and invasion of Caco-2 cells by AIEC; format: cell-based, E. coli; conditions: 30 mM, m.o.i 10, 3 h
Procedure: E. coli was cultured overnight in LB at 37° C. with shaking. Bacterial pellets were re-suspended in PBS before dilution in cell culture media±30 mM boronic acid or alkyl boronic acid to an m.o.i (multiplicity of infection) of 10. Caco-2 cells were infected with the diluted E. coli for 3 h at 37° C. before washing with PBS, then lysed with 1% Triton X-100. Serial dilutions of the lysates were made in PBS and plated on LB agar. The total number of colonies recovered was used to calculate the number of adherent bacteria. For invasion assays, cells were treated with gentamicin (100 μg mL−1) for one hour after initial infection and 3× wash with PBS to kill extracellular bacteria. Cells were then washed 3× after gentamicin treatment, lysed and plated as described above.

Salmonella [7] = test: Adhesion and invasion of colonic epithelial cells by Salmonella; format: cell-based
[8] = system: AIEC in murine macrophage J774A.1 cells; test: Uptake and survival of AIEC in J774A.1 macrophages; format: cell-based, E. coli
[9] = system: AIEC E. coli (541-1, LF82) virulence genes; test: Virulence gene expression of AIEC (qRT-PCR); format: cell-based; conditions: 30 mM
Procedure: Total RNA was extracted using the Qiagen RNAProtect-RNeasy Kit per manufacturer's protocol. Total RNA was treated with TURBO DNA-Free Kit (Ambion), followed by a two-step qRT-PCR analysis, using Qiagen's QuantiTect Reverse Transcription Kit and QuantiNova SYBR Green PCR Kit. Each qPCR reaction contained 1 μl of cDNA, 0.7 μl of each forward and reverse primers (10 μM), 5 μL of 2× SYBR Green Master Mix, 1 μl of QN ROX Reference Dye and […] of nuclease-free water to make the total volume of 10 μl. The reaction was run with ABI7000 (Applied Biosystems). […] The relative change of a targeted gene expression was calculated by using the equation RQ=2^−ΔΔCT.

[10] = system: typhoid toxin B subunit (CdtB); format: cell-based, Salmonella typhi
[11] = system: Feline Infectious Peritonitis Virus (FIPV) Black (TN-406); test: FIPV replication and syncytium formation, immunofluorescence; format: cell-based, Feline Coronavirus type I; conditions: 10, 20, 30, 40 mM; Feline Lung cells, 18 h post-infection
[12] = system: Klebsiella pneumonia (13Dk); test: Growth in M9 media; conditions: EBA 10-40 mM
[13] = system: probiotic Lactobacillus spp; test: Growth of probiotic Lactobacillus strains; conditions: three Lactobacillus strains
[14] = system: adherent invasive E. coli (AIEC, 541-1); test: Growth in M9 media with ethanolamine or NH4Cl; conditions: BA, EBA 10-40 mM, PBA 15 mM, MBA 30 mM
Feline Lung cells = test: Cytotoxicity in FIPV infected Feline Lung cells

CCB(O)O [EBA, ethyl boronic acid]
selectivity against Probiotic spp ([1]; compared with BA): more selective than BA
selectivity versus Gram Positive aerobes ([1]; compared with BA): more selective than BA
selectivity: impact on Gram Positive aerobes and probiotic species ([1]; same concentrations as growth panel): less impact on probiotic Lactobacillus, Bacillus, and Gram Positive aerobes; also recorded: more selective than DoDBA; also recorded: more selective than C3-C7 alkyl boronic acids
selectivity of activity against Listeria monocytogenes (Listeria monocytogenes): selectivity apparent
inhibition of growth of diarrheagenic and APEC E. coli [2]: have activity versus the diarrheagenic E. coli and APEC that varies by pathogroup; also recorded: more effective in inhibiting bacterial growth than BA overall
inhibition of growth of Salmonella serovars (Salmonella [3]): inhibit the growth of multiple serovars of Salmonella more effectively than BA
growth inhibition of Crohn's disease associated AIEC, MDR and non-MDR [4]: more effective than BA over a wider range of AIEC, including MDR and non-MDR strains
growth inhibition of canine Granulomatous colitis associated AIEC, MDR and non-MDR [5]: more effective than BA over a wider range of AIEC, including MDR and non-MDR strains
motility of E. coli [6]: highly effective at blocking motility of AIEC and cancer associated E. coli
induction of nF-κB by E. coli (nF-κB): reduced the induction of nF-κB by E. coli
adhesion and invasion of Caco-2 by AIEC (AIEC 541-1 and LF82): suppress adhesion and invasion of Caco-2 by AIEC 541-1 and LF82
suppression of adhesion and invasion of Salmonella (Salmonella [7]): 40-50%
survival of AIEC in J774A.1 macrophages ([8]; 30 mM during infection, 24 h post infection): inhibited the survival
uptake of AIEC by J774A.1 macrophages ([8]; 30 mM, 1 h): inhibited the uptake
pduC expression in 541-1 [9]: Upregulation
virulence gene expression of AIEC ([9]; mid log phase, compared with BA): inhibited virulence gene expression
typhoid toxin (CdtB) production [10]: inhibition of toxin production (CdtB)
replication and syncytium formation of FIPV [11]: inhibited replication and syncytium formation of FIPV in infected cells
degree of cytopathic effect (Caco-2 cells): EBA<BA<PBA
inhibition of growth of Klebsiella pneumonia 13Dk [12]: effective
growth of probiotic Lactobacillus spp [13]: do not suppress growth
inhibition of growth of AIEC 541-1 [14]: much more effective
cytotoxicity in antiviral assay (Feline Lung cells): Cytotoxicity was not observed at antiviral doses

Reference: US12589103B2, “Antimicrobial and antiviral effects of C2-C7 alkyl boronic acids” (CORNELL UNIVERSITY, priority 2019, dated 2026)
